Measurements reported in US20140024527A1, “HERBICIDAL PYRAZINONES” (E I DU DE NEMOURS AND COMPANY, priority 2011, published 2014).

What was measured:
Assay type in all cases: in vivo
[1] = tested on: barnyardgrass (Echinochloa crus-galli); test: Test A preemergence; details: 0 to 100 scale, 0 no effect, 100 complete control, approx. 10 days
Outline: (§1)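 After planting into loam soil blended with sand, pots were treated either preemergence by directed soil spray or postemergence on seedlings 2 to 10 cm tall. Plants stayed in the greenhouse roughly 10 days before visual comparison with controls; 100 denotes complete control.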

[2] = tested on: corn (Zea mays); test: Test A preemergence; details: 0 to 100 scale, 0 no effect, 100 complete control, approx. 10 days
Outline: as §1

[3] = tested on: giant foxtail (Setaria faberii); test: Test A preemergence; details: 0 to 100 scale, 0 no effect, 100 complete control, approx. 10 days
Outline: as §1

[4] = tested on: large crabgrass (Digitaria sanguinalis); test: Test A preemergence; details: 0 to 100 scale, 0 no effect, 100 complete control, approx. 10 days
Outline: as §1

[5] = tested on: morningglory (Ipomoea spp.); test: Test A preemergence; details: 0 to 100 scale, 0 no effect, 100 complete control, approx. 10 days
Outline: as §1

[6] = tested on: pigweed (Amaranthus retroflexus); test: Test A preemergence; details: 0 to 100 scale, 0 no effect, 100 complete control, approx. 10 days
Outline: as §1

[7] = tested on: velvetleaf (Abutilon theophrasti); test: Test A preemergence; details: 0 to 100 scale, 0 no effect, 100 complete control, approx. 10 days
Outline: as §1

[8] = tested on: wheat (Triticum aestivum); test: Test A preemergence; details: 0 to 100 scale, 0 no effect, 100 complete control, approx. 10 days
Outline: as §1

[9] = tested on: cocklebur (Xanthium strumarium); test: Test B postemergence; details: scale 0 to 100
Excerpt: (§2) Seeds of plant species selected from blackgrass (Alopecurus myosuroides), downy bromegrass (Bromus tectorum), green foxtail (Setaria viridis), Italian ryegrass (Lolium multiflorum), wheat (Triticum aestivum), wild oat (Avena fatua), galium (Galium aparine), bermudagrass (Cynodon dactylon), Surinam grass (Brachiaria decumbens), cocklebur (Xanthium strumarium), corn (Zea mays), large crabgrass (Digitaria sanguinalis), woolly cupgrass (Eriochloa villosa), giant foxtail (Setaria faberii), goosegrass (Eleusine indica), johnsongrass (Sorghum halepense), kochia (Kochia scoparia), lambsquarters (Chenopodium album), morningglory (Ipomoea coccinea), yellow nutsedge (Cyperus esculentus), pigweed (Amaranthus retroflexus), ragweed (Ambrosia elatior), soybean (Glycine max), velvetleaf (Abutilon theophrasti), barley (Hordeum vulgare), canarygrass (Phalaris minor), chickweed (Stellaria media), deadnettle (Lamium amplexicaule) and windgrass (Apera spica-venti) were planted in pots containing Redi-Earth® planting medium (Scotts Company, Marysville, Ohio, USA) comprising spaghnum peat moss, vermiculite, wetting agent and starter nutrients and treated postemergence with test compounds formulated in a non-phytotoxic solvent mixture which included a surfactant. Plants ranged in height from 2 to 18 cm (1- to 4-leaf stage).
(§3) Treated plants and controls were maintained in a greenhouse for 13 to 15 days, after which time all species were compared to controls and visually evaluated. Plant response ratings, summarized in Table B, are based on a scale of 0 to 100 where 0 is no effect and 100 is complete control. A dash (-) response means no test result.

[10] = tested on: corn (Zea mays); test: Test B postemergence; details: scale 0 to 100
Excerpt: as §2, §3

[11] = tested on: deadnettle (Lamium amplexicaule); test: Test B postemergence; details: scale 0 to 100
Excerpt: as §2, §3

[12] = tested on: downy bromegrass (Bromus tectorum); test: Test B postemergence; details: scale 0 to 100
Excerpt: as §2, §3

[13] = tested on: giant foxtail (Setaria faberii); test: Test B postemergence; details: scale 0 to 100
Excerpt: as §2, §3

[14] = tested on: ragweed (Ambrosia elatior); test: Test B postemergence; details: scale 0 to 100
Excerpt: as §2, §3

[15] = tested on: yellow nutsedge (Cyperus esculentus); test: Test B postemergence; details: scale 0 to 100
Excerpt: as §2, §3

[16] = tested on: barnyardgrass (Echinochloa crus-galli); test: Test B flooded paddy test; details: Flood
Outline: (§4)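 Step one: raise plants to 2 leaves. Step two: flood pots 3 cm over the soil and apply compound into the water, keeping this depth. Step three: after 13–15 greenhouse days, score visually versus controls, 0–100, where 100 means complete control.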

[17] = tested on: ducksalad (Heteranthera limosa); test: Test B flooded paddy test; details: Flood, scale 0 to 100
Outline: as §4

[18] = tested on: rice (Oryza sativa); test: Test B flooded paddy test; details: Flood, scale 0 to 100
Outline: as §4

[19] = tested on: umbrella sedge (Cyperus difformis); test: Test B flooded paddy test; details: Flood, scale 0 to 100
Outline: as §4

[20] = 250 g ai/ha, scale 0 to 100 (0 no effect, 100 complete control)

COCCn1c(-c2cccc(F)c2)c(Cl)nc(C(=O)C2=C(O)CCCC2=O)c1=O [Compound 4, 5-chloro-6-(3-fluorophenyl)-3-[(2-hydroxy-6-oxo-1-cyclohexen-1-yl)carbonyl]-1-(2-methoxyethyl)-2(1H)pyrazinone]
85: Plant response rating, Cocklebur ([9]; 250 g ai/ha) | Plant response rating, Ducksalad ([17]; 250 g ai/ha)
20: Plant response rating, Corn ([10]; 62 g ai/ha) | Plant response rating, Nutsedge, Yellow ([15]; 62 g ai/ha)
50: Plant response rating, Ragweed ([14]; 31 g ai/ha)
60: Plant response rating, Pigweed ([6]; 125 g ai/ha) | Plant response rating, Foxtail, Giant ([13]; 62 g ai/ha) | Plant response rating, Ducksalad ([17]; 31 g ai/ha)
10: Plant response rating, Morningglory ([5]; 125 g ai/ha) | Plant response rating, Bromegrass, Downy ([12]; 62 g ai/ha)
70: Plant response rating, Barnyardgrass ([1]; 500 g ai/ha) | Plant response rating, Morningglory ([5]; 500 g ai/ha) | Plant response rating, Foxtail, Giant ([13]; 125 g ai/ha)
30: Plant response rating, Foxtail, Giant ([3]; 500 g ai/ha) | Plant response rating, Barnyardgrass [16, 20] | Plant response rating, Rice ([18]; 250 g ai/ha)
5: Plant response rating, Cocklebur ([9]; 31 g ai/ha) | Plant response rating, Nutsedge, Yellow ([15]; 31 g ai/ha)
35: Plant response rating, Corn ([10]; 125 g ai/ha)
90: Plant response rating, Velvetleaf ([7]; 500 g ai/ha) | Plant response rating, Ragweed ([14]; 250 g ai/ha)
55: Plant response rating, Corn ([10]; 250 g ai/ha)
45: Plant response rating, Nutsedge, Yellow ([15]; 125 g ai/ha)
80: Plant response rating, Crabgrass, Large ([4]; 125 g ai/ha) | Plant response rating, Sedge, Umbrella ([19]; 250 g ai/ha)
100: Plant response rating, Crabgrass, Large ([4]; 500 g ai/ha) | Plant response rating, Pigweed ([6]; 500 g ai/ha)
25: Plant response rating, Cocklebur ([9]; 62 g ai/ha)
75: Plant response rating, Foxtail, Giant ([13]; 250 g ai/ha) | Plant response rating, Ragweed ([14]; 125 g ai/ha) | Plant response rating, Ducksalad ([17]; 125 g ai/ha) | Plant response rating, Sedge, Umbrella ([19]; 31 g ai/ha) | Plant response rating, Sedge, Umbrella ([19]; 62 g ai/ha) | Plant response rating, Sedge, Umbrella ([19]; 125 g ai/ha)
40: Plant response rating, Velvetleaf ([7]; 125 g ai/ha) | Plant response rating, Foxtail, Giant ([13]; 31 g ai/ha)
15: Plant response rating, Deadnettle ([11]; 31 g ai/ha) | Plant response rating, Deadnettle ([11]; 62 g ai/ha) | Plant response rating, Bromegrass, Downy ([12]; 125 g ai/ha) | Plant response rating, Bromegrass, Downy ([12]; 250 g ai/ha)
0: Plant response rating, Barnyardgrass ([1]; 125 g ai/ha) | Plant response rating, Corn ([2]; 125 g ai/ha) | Plant response rating, Corn ([2]; 500 g ai/ha) | Plant response rating, Foxtail, Giant ([3]; 125 g ai/ha) | Plant response rating, Wheat ([8]; 125 g ai/ha) | Plant response rating, Wheat ([8]; 500 g ai/ha) | Plant response rating, Corn ([10]; 31 g ai/ha) | Plant response rating, Bromegrass, Downy ([12]; 31 g ai/ha) | Plant response rating, Barnyardgrass ([16]; 31 g ai/ha, scale 0 to 100) | Plant response rating, Barnyardgrass ([16]; 62 g ai/ha, scale 0 to 100) | Plant response rating, Barnyardgrass ([16]; 125 g ai/ha, scale 0 to 100) | Plant response rating, Rice ([18]; 31 g ai/ha) | Plant response rating, Rice ([18]; 62 g ai/ha) | Plant response rating, Rice ([18]; 125 g ai/ha)
65: Plant response rating, Cocklebur ([9]; 125 g ai/ha) | Plant response rating, Ragweed ([14]; 62 g ai/ha) | Plant response rating, Nutsedge, Yellow ([15]; 250 g ai/ha) | Plant response rating, Ducksalad ([17]; 62 g ai/ha)

COCCn1c(-c2cc(F)cc(F)c2)c(Cl)nc(C(=O)C2=C(O)CCCC2=O)c1=O [Compound 6, 5-chloro-6-(3,5-difluorophenyl)-3-[(2-hydroxy-6-oxo-1-cyclohexen-1-yl)carbonyl]-1-(2-methoxyethyl)-2(1H)-pyrazinone]
90: Plant response rating, Barnyardgrass ([1]; 500 g ai/ha) | Plant response rating, Crabgrass, Large ([4]; 125 g ai/ha) | Plant response rating, Pigweed ([6]; 500 g ai/ha) | Plant response rating, Sedge, Umbrella ([19]; 250 g ai/ha)
100: Plant response rating, Crabgrass, Large ([4]; 500 g ai/ha) | Plant response rating, Velvetleaf ([7]; 500 g ai/ha) | Plant response rating, Cocklebur ([9]; 250 g ai/ha) | Plant response rating, Deadnettle ([11]; 250 g ai/ha)
80: Plant response rating, Morningglory ([5]; 500 g ai/ha) | Plant response rating, Corn ([10]; 250 g ai/ha) | Plant response rating, Foxtail, Giant ([13]; 125 g ai/ha) | Plant response rating, Nutsedge, Yellow ([15]; 125 g ai/ha) | Plant response rating, Nutsedge, Yellow ([15]; 250 g ai/ha) | Plant response rating, Ducksalad ([17]; 250 g ai/ha)
0: Plant response rating, Corn ([2]; 125 g ai/ha) | Plant response rating, Wheat ([8]; 125 g ai/ha) | Plant response rating, Barnyardgrass ([16]; 31 g ai/ha, scale 0 to 100) | Plant response rating, Barnyardgrass ([16]; 62 g ai/ha, scale 0 to 100) | Plant response rating, Barnyardgrass ([16]; 125 g ai/ha, scale 0 to 100) | Plant response rating, Rice ([18]; 31 g ai/ha) | Plant response rating, Rice ([18]; 62 g ai/ha) | Plant response rating, Rice ([18]; 125 g ai/ha)
98: Plant response rating, Ragweed ([14]; 250 g ai/ha)
60: Plant response rating, Bromegrass, Downy ([12]; 250 g ai/ha) | Plant response rating, Ragweed ([14]; 62 g ai/ha) | Plant response rating, Sedge, Umbrella ([19]; 31 g ai/ha)
40: Plant response rating, Morningglory ([5]; 125 g ai/ha) | Plant response rating, Ragweed ([14]; 31 g ai/ha) | Plant response rating, Nutsedge, Yellow ([15]; 31 g ai/ha)
70: Plant response rating, Foxtail, Giant ([3]; 500 g ai/ha) | Plant response rating, Ducksalad ([17]; 125 g ai/ha) | Plant response rating, Sedge, Umbrella ([19]; 62 g ai/ha)
35: Plant response rating, Bromegrass, Downy ([12]; 62 g ai/ha)
15: Plant response rating, Bromegrass, Downy ([12]; 31 g ai/ha) | Plant response rating, Rice ([18]; 250 g ai/ha)
75: Plant response rating, Cocklebur ([9]; 62 g ai/ha)
30: Plant response rating, Ducksalad ([17]; 31 g ai/ha)
45: Plant response rating, Corn ([10]; 31 g ai/ha) | Plant response rating, Corn ([10]; 62 g ai/ha) | Plant response rating, Nutsedge, Yellow ([15]; 62 g ai/ha)
20: Plant response rating, Barnyardgrass ([1]; 125 g ai/ha) | Plant response rating, Corn ([2]; 500 g ai/ha) | Plant response rating, Foxtail, Giant ([3]; 125 g ai/ha) | Plant response rating, Wheat ([8]; 500 g ai/ha)
85: Plant response rating, Deadnettle ([11]; 31 g ai/ha) | Plant response rating, Deadnettle ([11]; 62 g ai/ha) | Plant response rating, Deadnettle ([11]; 125 g ai/ha) | Plant response rating, Sedge, Umbrella ([19]; 125 g ai/ha)
50: Plant response rating, Pigweed ([6]; 125 g ai/ha) | Plant response rating, Velvetleaf ([7]; 125 g ai/ha) | Plant response rating, Cocklebur ([9]; 31 g ai/ha) | Plant response rating, Bromegrass, Downy ([12]; 125 g ai/ha) | Plant response rating, Barnyardgrass [16, 20] | Plant response rating, Ducksalad ([17]; 62 g ai/ha)
65: Plant response rating, Corn ([10]; 125 g ai/ha) | Plant response rating, Foxtail, Giant ([13]; 31 g ai/ha) | Plant response rating, Foxtail, Giant ([13]; 62 g ai/ha) | Plant response rating, Ragweed ([14]; 125 g ai/ha)
95: Plant response rating, Cocklebur ([9]; 125 g ai/ha) | Plant response rating, Foxtail, Giant ([13]; 250 g ai/ha)
